Tests used:
Format in all cases: physicochemical
[1] = Shear sensitivity (compression, XRPD); conditions: compressed under 700 and 1100 lbs for 1 minute
Description: Shear Sensitivity: Form A of a hydrochloride salt of Compound 1 was compressed under 700 and 1100 lbs for 1 minute and analyzed by XRPD.

[2] = Dynamic vapor sorption (DVS) hygroscopicity
Description: Dynamic vapor sorption (DVS) was measured using DVS advantage (Surface Measurement Systems Ltd). The samples were tested under isotherm (25° C.) at a targeted RH of 0 to 95% full cycle in step mode. For an isotherm test, the chamber temperature is maintained by a water bath at constant 25.0±1.0° C. The relative humidity in the sample chamber is generated by combining different flows of wet and dry nitrogen with variable flow rates. The analysis was performed in 10% RH increments. Sampling rate is 1 sec save data rate is 20 sec. The dm/dt (%) value was set at 0.001 with a dm/dt window of 5 min., a minimum stability duration time of 10 min, and a maximum stage time of 180 min. The sample's equilibrium weight corresponding to each RH was recorded. A sorption isotherm is obtained by plotting equilibrium moisture content versus RH.

[3] = Long term solid state stability (double LDPE bags in HDPE container)
Description: Long Term Solid State Stability: Form A of a hydrochloride salt of Compound 1 (packaged in double LDPE bags in HDPE container) was stored up to 3 months at 25° C./60% RH, 30° C./65% RH, and 40° C./75% RH storage conditions. […] Therefore, a re-test period of 12 months is proposed when stored at or below 25° C.

[4] = Solid state photostress study under 2 times ICH conditions
Description: (§1) Solid State Stability: Solid state stability of Form A of a hydrochloride salt of Compound 1 was evaluated using Accelerated Stability Assessment Program (ASAP). Forced degradation storage conditions were used between 60-80° C. and 0-80% RH for up to 2 weeks. A photostress study under 2 times ICH conditions was also conducted in the solid state. The solid samples were analyzed for both chemical and chiral stability. At the end of the study, the crystalline form of the compound was verified by XRPD.

[5] = Solid state stability, Accelerated Stability Assessment Program (ASAP)
Description: as §1

Cl.O=C1CC[C@H](N2C(=O)c3cccc(NCc4ccc(CN5CC(N6CCOCC6)C5)cc4F)c3C2=O)C(=O)N1
solid form after compression (XRPD) [1]: remained the same
solid form after DVS ([2]; after DVS): remained as Form A
hygroscopicity (DVS) ([2]; below 90% RH): moderate hygroscopic
water uptake expressed as moles of water (DVS) ([2]; corresponding to the about 3.0% w/w uptake): about 1 mole
sorption/desorption reversibility (DVS) ([2]; during two full cycles): almost reversible
moisture picked up (DVS) ([2]; from dry up to 90% RH): ~2.9 % wt
mass increase (DVS) ([2]; increase in RH from about 0% to about 95%): about 3.0%
water uptake (DVS) ([2]; sorption at all humidities, FIG. 7): about 3.0 % w/w
Appearance (Yellow powder) ([3]; 25° C./60% RH, 0 Month): Conforms
Chiral Purity (%) ([3]; 25° C./60% RH, 0 Month): 96.0%
Chromatographic Purity (%) ([3]; 25° C./60% RH, 0 Month): 98.6%
Solid forms (XRPD), consistent with Form A ([3]; 25° C./60% RH, 0 Month): Conforms
Total Related Impurities (%) ([3]; 25° C./60% RH, 0 Month): 1.41%
Water (%) ([3]; 25° C./60% RH, 0 Month): 1.4%
Appearance (Yellow powder) ([3]; 25° C./60% RH, 1 Month): Conforms
Chiral Purity (%) ([3]; 25° C./60% RH, 1 Month): 95.7%
Chromatographic Purity (%) ([3]; 25° C./60% RH, 1 Month): 98.5%
Solid forms (XRPD), consistent with Form A ([3]; 25° C./60% RH, 1 Month): Conforms
Total Related Impurities (%) ([3]; 25° C./60% RH, 1 Month): 1.50%
Water (%) ([3]; 25° C./60% RH, 1 Month): 1.7%
Appearance (Yellow powder) ([3]; 25° C./60% RH, 3 Month): Conforms
Chiral Purity (%) ([3]; 25° C./60% RH, 3 Month): 95.7%
Chromatographic Purity (%) ([3]; 25° C./60% RH, 3 Month): 98.5%
Solid forms (XRPD), consistent with Form A ([3]; 25° C./60% RH, 3 Month): Conforms
Total Related Impurities (%) ([3]; 25° C./60% RH, 3 Month): 1.55%
Water (%) ([3]; 25° C./60% RH, 3 Month): 1.9%
long term solid state stability ([3]; 25° C./60% RH, 30° C./65% RH and 40° C./75% RH for 3 months, double LDPE bags in HDPE container): demonstrate stability
Appearance (Yellow powder) ([3]; 30° C./65% RH, 0 Month): Conforms
Chiral Purity (%) ([3]; 30° C./65% RH, 0 Month): 96.0%
Chromatographic Purity (%) ([3]; 30° C./65% RH, 0 Month): 98.6%
Total Related Impurities (%) ([3]; 30° C./65% RH, 0 Month): 1.41%
Water (%) ([3]; 30° C./65% RH, 0 Month): 1.4%
Appearance (Yellow powder) ([3]; 30° C./65% RH, 1 Month): Conforms
Chiral Purity (%) ([3]; 30° C./65% RH, 1 Month): 94.5%
Chromatographic Purity (%) ([3]; 30° C./65% RH, 1 Month): 98.4%
Total Related Impurities (%) ([3]; 30° C./65% RH, 1 Month): 1.56%
Water (%) ([3]; 30° C./65% RH, 1 Month): 1.9%
Appearance (Yellow powder) ([3]; 30° C./65% RH, 3 Month): Conforms
Chiral Purity (%) ([3]; 30° C./65% RH, 3 Month): 95.8%
Chromatographic Purity (%) ([3]; 30° C./65% RH, 3 Month): 98.4%
Total Related Impurities (%) ([3]; 30° C./65% RH, 3 Month): 1.63%
Water (%) ([3]; 30° C./65% RH, 3 Month): 2.0%
Appearance (Yellow powder) ([3]; 40° C./75% RH, 0 Month): Conforms
Chiral Purity (%) ([3]; 40° C./75% RH, 0 Month): 96.0%
Chromatographic Purity (%) ([3]; 40° C./75% RH, 0 Month): 98.6%
Solid forms (XRPD), consistent with Form A ([3]; 40° C./75% RH, 0 Month): Conforms
Total Related Impurities (%) ([3]; 40° C./75% RH, 0 Month): 1.41%
Water (%) ([3]; 40° C./75% RH, 0 Month): 1.4%
Appearance (Yellow powder) ([3]; 40° C./75% RH, 1 Month): Conforms
Chiral Purity (%) ([3]; 40° C./75% RH, 1 Month): 96.0%
Chromatographic Purity (%) ([3]; 40° C./75% RH, 1 Month): 98.5%
Solid forms (XRPD), consistent with Form A ([3]; 40° C./75% RH, 1 Month): Conforms
Total Related Impurities (%) ([3]; 40° C./75% RH, 1 Month): 1.52%
Water (%) ([3]; 40° C./75% RH, 1 Month): 1.8%
Appearance (Yellow powder) ([3]; 40° C./75% RH, 3 Month): Conforms
Chiral Purity (%) ([3]; 40° C./75% RH, 3 Month): 96.1%
Chromatographic Purity (%) ([3]; 40° C./75% RH, 3 Month): 98.4%
Solid forms (XRPD), consistent with Form A ([3]; 40° C./75% RH, 3 Month): Conforms
Total Related Impurities (%) ([3]; 40° C./75% RH, 3 Month): 1.60%
Water (%) ([3]; 40° C./75% RH, 3 Month): 2.0%
proposed re-test period ([3]; when stored at or below 25° C.): 12 months
LC Purity (%) ([4]; 2x ICH Photo Stressed): 94.80%
R-isomer % area ([4]; 2x ICH Photo Stressed): 1.17 % area
LC Purity (%) ([4]; Photo Stressed Control): 98.45%
R-isomer % area ([4]; Photo Stressed Control): 1.27 % area
changes in assay ([4]; photostability conditions (2 times ICH), solid state): < 4%
changes in assay ([5]; 60-80° C., 0-80% RH, up to 2 weeks, except 80° C./0% RH after 1 week and 2 weeks): < 5%
LC Purity (%) ([5]; 60° C., 50% RH, 7 days): 98.51%
R-isomer % area ([5]; 60° C., 50% RH, 7 days): 1.26 % area
LC Purity (%) ([5]; 60° C., 50% RH, 14 days): 98.47%
R-isomer % area ([5]; 60° C., 50% RH, 14 days): 1.28 % area
LC Purity (%) ([5]; 70° C., 20% RH, 7 days): 98.28%
R-isomer % area ([5]; 70° C., 20% RH, 7 days): 1.26 % area
LC Purity (%) ([5]; 70° C., 20% RH, 14 days): 98.50%
R-isomer % area ([5]; 70° C., 20% RH, 14 days): 1.26 % area
LC Purity (%) ([5]; 70° C., 75% RH, 7 days): 98.48%
R-isomer % area ([5]; 70° C., 75% RH, 7 days): 1.34 % area
LC Purity (%) ([5]; 70° C., 75% RH, 14 days): 98.24%
R-isomer % area ([5]; 70° C., 75% RH, 14 days): 1.49 % area
LC Purity (%) ([5]; 80° C., 0% RH, 7 days): 91.18%
R-isomer % area ([5]; 80° C., 0% RH, 7 days): 1.77 % area
LC Purity (%) ([5]; 80° C., 0% RH, 14 days): 86.98%
R-isomer % area ([5]; 80° C., 0% RH, 14 days): 1.28 % area
LC Purity (%) ([5]; 80° C., 40% RH, 7 days): 98.32%
R-isomer % area ([5]; 80° C., 40% RH, 7 days): 1.77 % area
LC Purity (%) ([5]; 80° C., 40% RH, 14 days): 98.29%
R-isomer % area ([5]; 80° C., 40% RH, 14 days): 1.30 % area
LC Purity (%) ([5]; 80° C., 70% RH, 7 days): 98.43%
R-isomer % area ([5]; 80° C., 70% RH, 7 days): 1.36 % area
LC Purity (%) ([5]; 80° C., 70% RH, 14 days): 98.21%
R-isomer % area ([5]; 80° C., 70% RH, 14 days): 1.45 % area
change of crystalline form (XRPD) ([5]; 80° C./70% RH after 10 days vs control): No change of crystalline form
ASAP stability conclusion ([5]; ASAP stability results): can be considered stable
LC Purity (%) ([5]; Heat/Humidity Control): 98.44%
R-isomer % area ([5]; Heat/Humidity Control): 1.26 % area
maximum change in chiral purity ([5]; across all conditions, maximum under high humidity conditions): ≤ 0.2%

From patent publication US11578056B2, “Solid forms comprising (S)-2-(2,6-dioxopiperidin-3-yl)-4-((2-fluoro-4-((3-morpholinoazetidin-1-yl)methyl)benzyl)amino)isoindoline-1,3-dione and salts thereof, and compositions comprising and methods of using the same” (Celgene Corporation, priority 2019, dated 2023)
